Test results as given in the CombiSolv-Exp solvation set (Vermeire and Green 2021).

Assay: solvent given as SMILES

Cc1ccccc1C(=O)O
solvation free energy, 298 K (in C1CCOC1): -9.3 kcal/mol | solvation free energy, 298 K (in C1COCCO1): -9.26 kcal/mol | solvation free energy, 298 K (in CC(C)(C)O): -9.12 kcal/mol | solvation free energy, 298 K (in CC(C)CCO): -8.95 kcal/mol | solvation free energy, 298 K (in CC(C)CO): -8.82 kcal/mol | solvation free energy, 298 K (in CC(C)O): -9.06 kcal/mol | solvation free energy, 298 K (in CC(C)OC(C)C): -8.56 kcal/mol | solvation free energy, 298 K (in CCC(C)O): -9.01 kcal/mol | solvation free energy, 298 K (in CCCC(C)O): -8.98 kcal/mol | solvation free energy, 298 K (in CCCCCCCCCCO): -8.7 kcal/mol | solvation free energy, 298 K (in CCCCCCCCO): -8.76 kcal/mol | solvation free energy, 298 K (in CCCCCCCO): -8.81 kcal/mol | solvation free energy, 298 K (in CCCCCCO): -8.86 kcal/mol | solvation free energy, 298 K (in CCCCCO): -8.91 kcal/mol | solvation free energy, 298 K (in CCCCCOC(C)=O): -8.7 kcal/mol | solvation free energy, 298 K (in CCCCO): -8.96 kcal/mol | solvation free energy, 298 K (in CCCCOC(C)=O): -8.76 kcal/mol | solvation free energy, 298 K (in CCCO): -9.01 kcal/mol | solvation free energy, 298 K (in CCO): -9.12 kcal/mol | solvation free energy, 298 K (in CCOC(C)=O): -8.91 kcal/mol | solvation free energy, 298 K (in CCOCC): -8.95 kcal/mol | solvation free energy, 298 K (in COC(C)=O): -8.92 kcal/mol | solvation free energy, 298 K (in O): -5.87 kcal/mol

CCCCOCC(C)O (stereo unspecified)
solvation free energy, 298 K (in O): -5.73 kcal/mol

Cn1c(=O)c2c(ncn2C)n(C)c1=O
solvation free energy, 298 K (in O): -12.6 kcal/mol

CN(C)C
solvation free energy, 298 K (in CC(C)=O): -2.56 kcal/mol | solvation free energy, 298 K (in CCCCCC): -2.63 kcal/mol | solvation free energy, 298 K (in CCCCCCC): -2.44 kcal/mol | solvation free energy, 298 K (in CCCCO): -2.91 kcal/mol | solvation free energy, 298 K (in CCCO): -3.49 kcal/mol | solvation free energy, 298 K (in CCO): -3.64 kcal/mol | solvation free energy, 298 K (in CN(C)C=O): -2.41 kcal/mol | solvation free energy, 298 K (in ClC(Cl)(Cl)Cl): -2.89 kcal/mol | solvation free energy, 298 K (in ClC(Cl)Cl): -3.9 kcal/mol | solvation free energy, 298 K (in O): -3.2 kcal/mol

c1ccc2c(c1)Cc1ccccc1O2
solvation free energy, 298 K (in C1CCOC1): -10.9 kcal/mol | solvation free energy, 298 K (in C1COCCO1): -10.8 kcal/mol | solvation free energy, 298 K (in CC(C)(C)O): -9.25 kcal/mol | solvation free energy, 298 K (in CC(C)CC(C)(C)C): -9.39 kcal/mol | solvation free energy, 298 K (in CC(C)CC(C)O): -9.34 kcal/mol | solvation free energy, 298 K (in CC(C)CCO): -9.39 kcal/mol | solvation free energy, 298 K (in CC(C)CO): -9.24 kcal/mol | solvation free energy, 298 K (in CC(C)O): -9.22 kcal/mol | solvation free energy, 298 K (in CC(C)OC(C)C): -9.95 kcal/mol | solvation free energy, 298 K (in CCC(C)(C)O): -9.49 kcal/mol | solvation free energy, 298 K (in CCC(C)O): -9.33 kcal/mol | solvation free energy, 298 K (in CCCC(C)CO): -9.42 kcal/mol | solvation free energy, 298 K (in CCCC(C)O): -9.43 kcal/mol | solvation free energy, 298 K (in CCCCCC): -9.63 kcal/mol | solvation free energy, 298 K (in CCCCCCC): -9.67 kcal/mol | solvation free energy, 298 K (in CCCCCCCC): -9.68 kcal/mol | solvation free energy, 298 K (in CCCCCCCCCC): -9.67 kcal/mol | solvation free energy, 298 K (in CCCCCCCCCCO): -9.67 kcal/mol | solvation free energy, 298 K (in CCCCCCCCO): -9.67 kcal/mol | solvation free energy, 298 K (in CCCCCCCO): -9.66 kcal/mol | solvation free energy, 298 K (in CCCCCCO): -9.63 kcal/mol | solvation free energy, 298 K (in CCCCCO): -9.57 kcal/mol | solvation free energy, 298 K (in CCCCO): -9.53 kcal/mol | solvation free energy, 298 K (in CCCCOCCCC): -10.1 kcal/mol | solvation free energy, 298 K (in CCCO): -9.41 kcal/mol | solvation free energy, 298 K (in CCO): -9.19 kcal/mol | solvation free energy, 298 K (in CCOCC): -10.5 kcal/mol | solvation free energy, 298 K (in CO): -9.2 kcal/mol | solvation free energy, 298 K (in COC(C)(C)C): -10.3 kcal/mol | solvation free energy, 298 K (in ClC(Cl)(Cl)Cl): -10.8 kcal/mol | solvation free energy, 298 K (in ClCCCl): -10.8 kcal/mol

CCCI
solvation free energy, 298 K (in C=CCCCCCCCCCCCCCC): -4.16 kcal/mol | solvation free energy, 298 K (in ClC(Cl)(Cl)Cl): -4.97 kcal/mol | solvation free energy, 298 K (in O): -0.56 kcal/mol

O=C(O)c1cccnc1Nc1cccc(C(F)(F)F)c1
solvation free energy, 298 K (in C1COCCO1): -17.9 kcal/mol | solvation free energy, 298 K (in CC(C)=O): -17.7 kcal/mol | solvation free energy, 298 K (in CCCCCCCCO): -17.1 kcal/mol | solvation free energy, 298 K (in CCOC(C)=O): -17.3 kcal/mol | solvation free energy, 298 K (in CCOCC): -16.5 kcal/mol | solvation free energy, 298 K (in CN(C)C=O): -19.1 kcal/mol | solvation free energy, 298 K (in Clc1ccccc1): -15.5 kcal/mol | solvation free energy, 298 K (in NC=O): -16.1 kcal/mol | solvation free energy, 298 K (in O): -12.8 kcal/mol

ClCBr
solvation free energy, 298 K (in C1CCCCC1): -3.69 kcal/mol | solvation free energy, 298 K (in ClC(Cl)(Cl)Cl): -3.93 kcal/mol | solvation free energy, 298 K (in c1ccccc1): -4.32 kcal/mol

CC1=CCC2(C(C)C)CC12 (stereo unspecified)
solvation free energy, 298 K (in O): 0.5 kcal/mol

CC(=O)OC1CCC2(C)C(=CCC3C2CCC2(C)C(C(C)CCCC(C)C)CCC32)C1 (stereo unspecified)
solvation free energy, 298 K (in O): -5.48 kcal/mol

CCCCCCCCCC(=O)OC
solvation free energy, 298 K (in O): -1.91 kcal/mol

CN(C)CCc1ccc(O)cc1
solvation free energy, 298 K (in C=CCCCCCCC=C): -10.1 kcal/mol | solvation free energy, 298 K (in O): -11.3 kcal/mol

CCCCC(C)C
solvation free energy, 298 K (in C=CCCCCCCCCCCCCCC): -3.96 kcal/mol | solvation free energy, 298 K (in CC#N): -2.99 kcal/mol | solvation free energy, 298 K (in O): 2.93 kcal/mol

CCCCN(CCCC)CCCC
solvation free energy, 298 K (in O): -4.09 kcal/mol

BrCCBr
solvation free energy, 298 K (in C1COCCO1): -5.84 kcal/mol | solvation free energy, 298 K (in ClC(Cl)(Cl)Cl): -5.33 kcal/mol | solvation free energy, 298 K (in O): -2.2 kcal/mol

CCOC(=O)c1ccccc1
solvation free energy, 298 K (in O): -3.74 kcal/mol

CCCOCCC
solvation free energy, 298 K (in C=CCCCCCCCCCCCCCC): -4 kcal/mol | solvation free energy, 298 K (in CC(C)(C)O): -4.13 kcal/mol | solvation free energy, 298 K (in CC(C)CO): -4.17 kcal/mol | solvation free energy, 298 K (in CC(C)O): -4.02 kcal/mol | solvation free energy, 298 K (in CCC(C)=O): -4.37 kcal/mol | solvation free energy, 298 K (in CCC(C)O): -4.15 kcal/mol | solvation free energy, 298 K (in CCCCCCCCCCCCCCCC): -4.02 kcal/mol | solvation free energy, 298 K (in CCCCCCCCO): -4.05 kcal/mol | solvation free energy, 298 K (in CCCCCCO): -4.12 kcal/mol | solvation free energy, 298 K (in CCCCCl): -4.68 kcal/mol | solvation free energy, 298 K (in CCCCO): -4.13 kcal/mol | solvation free energy, 298 K (in CN(C)C=O): -3.62 kcal/mol | solvation free energy, 298 K (in CO): -3.94 kcal/mol | solvation free energy, 298 K (in ClC(Cl)(Cl)Cl): -4.83 kcal/mol | solvation free energy, 298 K (in ClCCl): -5.02 kcal/mol | solvation free energy, 298 K (in O): -1.23 kcal/mol | solvation free energy, 298 K (in [2H]O[2H]): -1.37 kcal/mol

Cc1ccccc1C(=O)N(O)c1ccccc1C
solvation free energy, 298 K (in O): -11.2 kcal/mol

CN(C)c1ccccc1
solvation free energy, 298 K (in CCCCCCCCCCCCCCCC): -6.4 kcal/mol | solvation free energy, 298 K (in O): -3.45 kcal/mol

Cc1[nH]n(-c2ccccc2)c(=O)c1C(=O)c1ccccc1
solvation free energy, 298 K (in O): -11.6 kcal/mol

O=Cc1cccnc1
solvation free energy, 298 K (in O): -7.1 kcal/mol
